Columns and labels:
chickweed [1] = assay: Test Example 4: herbicidal effect by soil treatment (Table 19, symbol P); format: in vivo, common chickweed (Stellaria media); settings: amount of applied herbicide 320 g/ha
In short: (§1)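 Emulsion of test compound, water-diluted to predetermined amount, sprayed on soil after sowing (seed depth ~1.5 cm, sterilized diluvial soil). Greenhouse, 25–30° C. Effect graded at three weeks post-spray.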

persian speedwell [2] = assay: Test Example 4: herbicidal effect by soil treatment (Table 19, symbol R); format: in vivo, Persian speedwell (Veronica persica); settings: amount of applied herbicide 320 g/ha
In short: as §1

barnyard grass [3] = assay: Test Example 5: herbicidal effect by foliage application, plastic box (Table 20, symbol H); format: in vivo, barnyard grass (Echinochloa crus-galli)
In short: (§2)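 Post-emergence foliar test in sterilized diluvial soil. Compound applied as water-diluted emulsion at a predetermined rate to 14-day-old plants; evaluation at three weeks.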

southern crabgrass [4] = assay: Test Example 4: herbicidal effect by soil treatment (Table 19, symbol F); format: in vivo, southern crabgrass (Digitaria ciliaris); settings: amount of applied herbicide 320 g/ha
In short: as §1

windgrass [5] = assay: Test Example 4: herbicidal effect by soil treatment (Table 19, symbol L); format: in vivo, windgrass (Apera spica-venti); settings: amount of applied herbicide 320 g/ha
In short: as §1

redroot pigweed [6] = assay: Test Example 4: herbicidal effect by soil treatment (Table 19, symbol N); format: in vivo, redroot pigweed (Amaranthus retroflexus); settings: amount of applied herbicide 320 g/ha
In short: as §1

rice flat sedge = assay: Test Example 3: herbicidal effect by foliage application, Wagner pot (Table 18, symbol E); format: in vivo, rice flat sedge (Cyperus iria)
In short: (§3)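 Plants were sown in alluvial soil held under 0.1–0.5 cm standing water and grown 14 days in a greenhouse at 25–30 °C. An emulsifiable formulation, water-diluted to the set dose, was then sprayed onto the foliage, and effects were scored three weeks later using previously defined criteria.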

lambsquarters [7] = assay: Test Example 4: herbicidal effect by soil treatment (Table 19, symbol O); format: in vivo, lambsquarters (Chenopodium album); settings: amount of applied herbicide 320 g/ha
In short: as §1

blackgrass [8] = assay: Test Example 4: herbicidal effect by soil treatment (Table 19, symbol J); format: in vivo, blackgrass (Alopecurus myosuroides); settings: amount of applied herbicide 320 g/ha
In short: as §1

barnyard grass [9] = assay: Test Example 3: herbicidal effect by foliage application, Wagner pot (Table 18, symbol H); format: in vivo, barnyard grass (Echinochloa crus-galli)
In short: as §3

velvetleaf [10] = assay: Test Example 4: herbicidal effect by soil treatment (Table 19, symbol M); format: in vivo, velvetleaf (Abutilon theophrasti); settings: amount of applied herbicide 320 g/ha
In short: as §1

southern crabgrass [11] = assay: Test Example 5: herbicidal effect by foliage application, plastic box (Table 20, symbol F); format: in vivo, southern crabgrass (Digitaria ciliaris)
In short: as §2

redroot pigweed [12] = assay: Test Example 5: herbicidal effect by foliage application, plastic box (Table 20, symbol N); format: in vivo, redroot pigweed (Amaranthus retroflexus); settings: amount of applied herbicide 320 g/ha; foliage application after 14-day growth; evaluated three weeks after application
In short: as §2

Italian ryegrass [13] = assay: Test Example 4: herbicidal effect by soil treatment (Table 19, symbol K); format: in vivo, Italian ryegrass (Lolium multiflorum); settings: amount of applied herbicide 320 g/ha
In short: as §1

wild oat [14] = assay: Test Example 4: herbicidal effect by soil treatment (Table 19, symbol I); format: in vivo, wild oat (Avena fatua); settings: amount of applied herbicide 320 g/ha
In short: as §1

lambsquarters [15] = assay: Test Example 5: herbicidal effect by foliage application, plastic box (Table 20, symbol O); format: in vivo, lambsquarters (Chenopodium album)
In short: as §2

wild oat [16] = assay: Test Example 5: herbicidal effect by foliage application, plastic box (Table 20, symbol I); format: in vivo, wild oat (Avena fatua)
In short: as §2

chickweed [17] = assay: Test Example 5: herbicidal effect by foliage application, plastic box (Table 20, symbol P); format: in vivo, common chickweed (Stellaria media); settings: amount of applied herbicide 320 g/ha; foliage application after 14-day growth; evaluated three weeks after application
In short: as §2

windgrass [18] = assay: Test Example 5: herbicidal effect by foliage application, plastic box (Table 20, symbol L); format: in vivo, windgrass (Apera spica-venti)
In short: as §2

green foxtail [19] = assay: Test Example 5: herbicidal effect by foliage application, plastic box (Table 20, symbol G); format: in vivo, green foxtail (Setaria viridis)
In short: as §2

Chinese sprangletop = assay: Test Example 3: herbicidal effect by foliage application, Wagner pot (Table 18, symbol D); format: in vivo, chinese sprangletop (Leptochloa chinensis)
In short: as §3

barnyard grass [20] = assay: Test Example 4: herbicidal effect by soil treatment (Table 19, symbol H); format: in vivo, barnyard grass (Echinochloa crus-galli); settings: amount of applied herbicide 320 g/ha
In short: as §1

persian speedwell [21] = assay: Test Example 5: herbicidal effect by foliage application, plastic box (Table 20, symbol R); format: in vivo, Persian speedwell (Veronica persica)
In short: as §2

Italian ryegrass [22] = assay: Test Example 5: herbicidal effect by foliage application, plastic box (Table 20, symbol K); format: in vivo, Italian ryegrass (Lolium multiflorum)
In short: as §2

blackgrass [23] = assay: Test Example 5: herbicidal effect by foliage application, plastic box (Table 20, symbol J); format: in vivo, blackgrass (Alopecurus myosuroides)
In short: as §2

green foxtail [24] = assay: Test Example 4: herbicidal effect by soil treatment (Table 19, symbol G); format: in vivo, green foxtail (Setaria viridis); settings: amount of applied herbicide 320 g/ha
In short: as §1

velvetleaf [25] = assay: Test Example 5: herbicidal effect by foliage application, plastic box (Table 20, symbol M); format: in vivo, velvetleaf (Abutilon theophrasti)
In short: as §2

late watergrass = assay: Test Example 1: herbicidal activity, application before weed generation under submerged conditions (Table 16, symbol A); format: in vivo, late watergrass (Echinochloa oryzicola)
Source text: (§4) [Test Example 1] Herbicidal Activity Test by Application before Weed Generation under Submerged Conditions After alluvial soil was placed into 1/10000 are of Wagner pot, water was poured and mixed to form a submerged condition having a water depth of 4 cm. Seeds of late watergrass, Japanese bulrush, and oval-leafed pondweed were sowed in a mixed manner in the aforementioned pot, and then 2.5 leaf stage rice plant seedlings were transplanted thereto. On the day of sowing seeds, the emulsion agent of the compound of the present invention prepared according to Formulation Example 2 was diluted with water so as to achieve a predetermined herbicide amount, and the diluted emulsion agent was applied to the surface of the water. The pot was placed in a greenhouse at 25° C. to 30° C. for growth of the plants. Three weeks after the herbicide application, the effect of the herbicide on each plant was evaluated according to the following criteria. Evaluation Criteria 5: Herbicidal rate of 90% or more (almost completely withered) 4: Herbicidal rate of 70% or more and less than 90% 3: Herbicidal rate of 40% or more and less than 70% 2: Herbicidal rate of 20% or more and less than 40% 1: Herbicidal rate of 5% or more and less than 20% 0: Herbicidal rate of 5% or less (almost no effect)

Japanese bulrush = assay: Test Example 1: herbicidal activity, application before weed generation under submerged conditions (Table 16, symbol B); format: in vivo, Japanese bulrush (Schoenoplectus juncoides)
Source text: as §4

oval-leafed pondweed = assay: Test Example 1: herbicidal activity, application before weed generation under submerged conditions (Table 16, symbol C); format: in vivo, oval-leafed pondweed (Monochoria vaginalis); settings: amount of applied herbicide 370 g/ha
Source text: as §4

[26] = amount of applied herbicide 320 g/ha, foliage application after 14-day growth, evaluated three weeks after application
[27] = foliage application, 320 g/ha, three weeks after application
[28] = amount of applied herbicide 320 g/ha
[29] = amount of applied herbicide 370 g/ha

COc1cc(F)ccc1-c1sc2cc(Cl)c(Cl)cc2c1-c1c(O)c(C)nn(C)c1=O [5-051]
P: chickweed, herbicidal effect grade (chickweed [1]): 1 (Herbicidal rate of 5% or more and less than 20%) | R: persian speedwell, herbicidal effect grade (persian speedwell [2]): 0 (Herbicidal rate of 5% or less (almost no effect)) | Herbicidal effect by foliage application, H: barnyard grass (barnyard grass [3]; [26]): 3 (Herbicidal rate of 40% or more and less than 70%) | F: southern crabgrass, herbicidal effect grade (southern crabgrass [4]): 0 (Herbicidal rate of 5% or less (almost no effect)) | L: windgrass, herbicidal effect grade (windgrass [5]): 0 (Herbicidal rate of 5% or less (almost no effect)) | N: redroot pigweed, herbicidal effect grade (redroot pigweed [6]): 1 (Herbicidal rate of 5% or more and less than 20%) | herbicidal effect on rice flat sedge (E) (rice flat sedge; 320 g/ha): 3 (Herbicidal rate of 40% or more and less than 70%) | O: lambsquarters, herbicidal effect grade (lambsquarters [7]): 4 (Herbicidal rate of 70% or more and less than 90%) | J: blackgrass, herbicidal effect grade (blackgrass [8]): 0 (Herbicidal rate of 5% or less (almost no effect)) | herbicidal effect on barnyard grass (H) (barnyard grass [9]; 320 g/ha): 4 (Herbicidal rate of 70% or more and less than 90%) | M: velvetleaf, herbicidal effect grade (velvetleaf [10]): 0 (Herbicidal rate of 5% or less (almost no effect)) | Herbicidal effect by foliage application, F: southern crabgrass (southern crabgrass [11]; [26]): 2 (Herbicidal rate of 20% or more and less than 40%) | Herbicidal effect by foliage application, N: redroot pigweed (redroot pigweed [12]): 3 (Herbicidal rate of 40% or more and less than 70%) | K: Italian ryegrass, herbicidal effect grade (Italian ryegrass [13]): 0 (Herbicidal rate of 5% or less (almost no effect)) | I: wild oat, herbicidal effect grade (wild oat [14]): 0 (Herbicidal rate of 5% or less (almost no effect)) | Herbicidal effect by foliage application, O: lambsquarters (lambsquarters [15]; [26]): 3 (Herbicidal rate of 40% or more and less than 70%) | Herbicidal effect by foliage application, I: wild oat (wild oat [16]; [26]): 0 (Herbicidal rate of 5% or less (almost no effect)) | Herbicidal effect by foliage application, P: chickweed (chickweed [17]): 5 (Herbicidal rate of 90% or more (almost completely withered)) | Herbicidal effect by foliage application, L: windgrass (windgrass [18]; [26]): 4 (Herbicidal rate of 70% or more and less than 90%) | Herbicidal effect by foliage application, G: green foxtail (green foxtail [19]; [26]): 4 (Herbicidal rate of 70% or more and less than 90%) | herbicidal effect on Chinese sprangletop (D) (Chinese sprangletop; 320 g/ha): 3 (Herbicidal rate of 40% or more and less than 70%) | H: barnyard grass, herbicidal effect grade (barnyard grass [20]): 0 (Herbicidal rate of 5% or less (almost no effect)) | Herbicidal effect by foliage application, R: persian speedwell (persian speedwell [21]; [26]): 3 (Herbicidal rate of 40% or more and less than 70%) | Herbicidal effect by foliage application, K: Italian ryegrass (Italian ryegrass [22]; [26]): 0 (Herbicidal rate of 5% or less (almost no effect)) | Herbicidal effect by foliage application, J: blackgrass (blackgrass [23]; [26]): 5 (Herbicidal rate of 90% or more (almost completely withered)) | G: green foxtail, herbicidal effect grade (green foxtail [24]): 2 (Herbicidal rate of 20% or more and less than 40%) | Herbicidal effect by foliage application, M: velvetleaf (velvetleaf [25]; [26]): 5 (Herbicidal rate of 90% or more (almost completely withered))

COc1cc2sc(-c3ccccc3OC)c(-c3c(O)c(C)nn(C)c3=O)c2cc1Cl [5-068]
herbicidal effect on barnyard grass (H) (barnyard grass [3]; [27]): 3 (Herbicidal rate of 40% or more and less than 70%) | herbicidal effect on rice flat sedge (E) (rice flat sedge; 320 g/ha): 1 (Herbicidal rate of 5% or more and less than 20%) | herbicidal effect on barnyard grass (H) (barnyard grass [9]; 320 g/ha): 4 (Herbicidal rate of 70% or more and less than 90%) | herbicidal effect on southern crabgrass (F) (southern crabgrass [11]; [27]): 1 (Herbicidal rate of 5% or more and less than 20%) | herbicidal effect on lambsquarters (O) (lambsquarters [15]; [27]): 3 (Herbicidal rate of 40% or more and less than 70%) | herbicidal effect on wild oat (I) (wild oat [16]; [27]): 0 (Herbicidal rate of 5% or less (almost no effect)) | Herbicidal effect, A: late watergrass (late watergrass; [28]): 0 (Herbicidal rate of 5% or less (almost no effect)) | herbicidal effect on windgrass (L) (windgrass [18]; [27]): 0 (Herbicidal rate of 5% or less (almost no effect)) | herbicidal effect on green foxtail (G) (green foxtail [19]; [27]): 3 (Herbicidal rate of 40% or more and less than 70%) | herbicidal effect on Chinese sprangletop (D) (Chinese sprangletop; 320 g/ha): 0 (Herbicidal rate of 5% or less (almost no effect)) | herbicidal effect on persian speedwell (R) (persian speedwell [21]; [27]): 2 (Herbicidal rate of 20% or more and less than 40%) | herbicidal effect on Italian ryegrass (K) (Italian ryegrass [22]; [27]): 0 (Herbicidal rate of 5% or less (almost no effect)) | Herbicidal effect, B: Japanese bulrush (Japanese bulrush; [28]): 5 (Herbicidal rate of 90% or more (almost completely withered)) | herbicidal effect on blackgrass (J) (blackgrass [23]; [27]): 0 (Herbicidal rate of 5% or less (almost no effect)) | herbicidal effect on velvetleaf (M) (velvetleaf [25]; [27]): 1 (Herbicidal rate of 5% or more and less than 20%)

CCCC(=O)Oc1c(C)nn(C)c(=O)c1-c1c(-c2ccccc2OCC)sc2cc(OC)c(-c3ccccc3OCC)cc12 [5-080]
herbicidal effect on rice flat sedge (E) (rice flat sedge; 370 g/ha): 2 (Herbicidal rate of 20% or more and less than 40%) | Herbicidal effect, C: oval-leafed pondweed (oval-leafed pondweed): 0 (Herbicidal rate of 5% or less (almost no effect)) | herbicidal effect on barnyard grass (H) (barnyard grass [9]; 370 g/ha): 3 (Herbicidal rate of 40% or more and less than 70%) | Herbicidal effect, A: late watergrass (late watergrass; [29]): 0 (Herbicidal rate of 5% or less (almost no effect)) | herbicidal effect on Chinese sprangletop (D) (Chinese sprangletop; 370 g/ha): 3 (Herbicidal rate of 40% or more and less than 70%) | Herbicidal effect, B: Japanese bulrush (Japanese bulrush; [29]): 3 (Herbicidal rate of 40% or more and less than 70%)
